Source: patent publication US6706663B2, “Herbicidal 3-heterocyclic substituted benzisothiazole and benzisoxazole compounds” (Wyeth, priority 2000, dated 2004)

Key:
[1] = system: ECHCG (Echinochloa crus-galli); assay: Postemergence herbicidal evaluation; type: in vivo, (L.) Beau
In short: (§1)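 Seedlings grown for about two weeks were sprayed postemergence and then kept under standard greenhouse care. Injury was rated visually 4–5 weeks after treatment on a 0–9 scale against untreated controls, and ratings from repeat tests were averaged.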

[2] = system: TRZAWR (Wheat, Winter, cv Riband); assay: Preemergence herbicidal evaluation; type: in vivo, Triticum aestivum; conditions: preemergence, rated 4-5 weeks after treatment
In short: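 Seeds mixed with potting soil were planted atop about one inch of soil, then sprayed with test compound in aqueous acetone. Cups were kept in the greenhouse and rated visually 4–5 weeks after treatment on a 0–9 scale against untreated control.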

[3] = system: ECHORC (Echinochloa oryzoides); assay: Flooded paddy, preemergence weed control; type: in vivo, Echinochloa oryzoides (Ard.) Fritsch.; conditions: rated 3-4 weeks after treatment, 0-9 rating scale
In short: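 Plants were established from seed or propagating organs in flooded silt loam, with the water surface held 1.5 to 3 cm above the soil for the entire experiment. Injury was assessed visually against a control and given a 0-9 score.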

[4] = system: IPOHE (Ipomoea hederacea); assay: Preemergence herbicidal evaluation; type: in vivo, (L.) Jacq.; conditions: preemergence, rated 4-5 weeks after treatment
[5] = system: ABUTH (Abutilon theophrasti); assay: Preemergence herbicidal evaluation; type: in vivo, Medic.; conditions: preemergence, rated 4-5 weeks after treatment
ZEAMX (Corn, Field) [6] = assay: Preemergence herbicidal evaluation; type: in vivo, Zea mays, L.; conditions: preemergence, rated 4-5 weeks after treatment
[7] = system: GLXMAW (Soybean, Williams); assay: Postemergence herbicidal evaluation; type: in vivo, Glycine max, (L.) Merr. cv Williams
In short: as §1

ZEAMX (Corn, Field) [8] = assay: Postemergence herbicidal evaluation; type: in vivo, Zea mays, L.
In short: as §1

[9] = system: GLXMAW (Soybean, Williams); assay: Preemergence herbicidal evaluation; type: in vivo, Glycine max, (L.) Merr. cv Williams; conditions: preemergence, rated 4-5 weeks after treatment
ORYSAT (Rice, Tebonnet) = assay: Flooded paddy, post-transplant rice tolerance; type: in vivo, Oryza sativa, (L.) Tebonnet; conditions: flooded paddy, post-transplant rice, rated 3-4 weeks after treatment, 0-9 rating scale
In short: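 Two ten-day-old seedlings were transplanted into silt loam, flooded and held at 1.5 to 3 cm water above the soil before herbicide treatment. Pots stayed in the greenhouse at that water level. Injury was scored visually on a 0-9 scale versus untreated control.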

Compound	Postemergence herbicidal rating, ECHCG ([1]; rate 0.0320 kg/ha)	Postemergence herbicidal rating, ECHCG ([1]; rate 0.0620 kg/ha)	TRZAWR preemergence herbicidal rating ([2]; Rate 0.0620 kg/ha)	TRZAWR preemergence herbicidal rating ([2]; Rate 0.1250 kg/ha)	TRZAWR preemergence herbicidal rating ([2]; Rate 0.2500 kg/ha)	herbicidal rating, ECHORC ([3]; rate 0.0320 kg/ha)	herbicidal rating, ECHORC ([3]; rate 0.1250 kg/ha)	IPOHE preemergence herbicidal rating ([4]; Rate 0.0620 kg/ha)	IPOHE preemergence herbicidal rating ([4]; Rate 0.1250 kg/ha)	IPOHE preemergence herbicidal rating ([4]; Rate 0.2500 kg/ha)	ABUTH preemergence herbicidal rating ([5]; Rate 0.0620 kg/ha)	ABUTH preemergence herbicidal rating ([5]; Rate 0.1250 kg/ha)	ABUTH preemergence herbicidal rating ([5]; Rate 0.2500 kg/ha)	ZEAMX preemergence herbicidal rating (ZEAMX (Corn, Field) [6]; Rate 0.0620 kg/ha)	ZEAMX preemergence herbicidal rating (ZEAMX (Corn, Field) [6]; Rate 0.1250 kg/ha)	ZEAMX preemergence herbicidal rating (ZEAMX (Corn, Field) [6]; Rate 0.2500 kg/ha)	Postemergence herbicidal rating, GLXMAW ([7]; rate 0.0320 kg/ha)	Postemergence herbicidal rating, GLXMAW ([7]; rate 0.0620 kg/ha)	Postemergence herbicidal rating, ZEAMX (ZEAMX (Corn, Field) [8]; rate 0.0320 kg/ha)	Postemergence herbicidal rating, ZEAMX (ZEAMX (Corn, Field) [8]; rate 0.0620 kg/ha)	further results
1-methyl-3-[3-(1,3-oxathiolan-2-yl)-1,2-benzisothiazol-5-yl]-6-(trifluoromethyl)uracil S′,S′-dioxide [Compound 32]	3.0	5.0	7.0	8.0	9.0	0.0	0.0	9.0	9.0	9.0	9.0	9.0	9.0	6.0	9.0	9.0	8.0	9.0	5.5	5.5	GLXMAW preemergence herbicidal rating ([9]; Rate 0.0620 kg/ha): 6.5; GLXMAW preemergence herbicidal rating ([9]; Rate 0.1250 kg/ha): 9.0; GLXMAW preemergence herbicidal rating ([9]; Rate 0.2500 kg/ha): 9.0
CCOC(=O)C1CS[C@H](c2nsc3ccc(-n4c(=O)cc(C(F)(F)F)n(C)c4=O)cc23)N1 (stereo partly drawn) [Compound 2, ethyl (R)-2-[5-[3,6-dihydro-3-methyl-2,6-dioxo-4-(trifluoromethyl)-1(2H)-pyrimidinyl]-1,2-benzisothiazol-3-yl]-4-thiazolidinecarboxylate]	3.0	4.0	2.0	5.0	7.0	0.0	2.0	9.0	9.0	9.0	9.0	9.0	9.0	3.5	6.5	7.5	7.0	7.5	7.0	7.0	herbicidal rating, ORYSAT (rice tolerance) (ORYSAT (Rice, Tebonnet); rate 0.0320 kg/ha): 1.0; herbicidal rating, ORYSAT (rice tolerance) (ORYSAT (Rice, Tebonnet); rate 0.1250 kg/ha): 4.0; GLXMAW preemergence herbicidal rating ([9]; Rate 0.0620 kg/ha): 5.5; GLXMAW preemergence herbicidal rating ([9]; Rate 0.1250 kg/ha): 8.0; GLXMAW preemergence herbicidal rating ([9]; Rate 0.2500 kg/ha): 8.0
Cn1c(C(F)(F)F)cc(=O)n(-c2ccc3snc(-c4cccs4)c3c2)c1=O [Compound 3, 1-methyl-3-[3-(2-thienyl)-1,2-benzisothiazol-5-yl]-6-(trifluoromethyl)uracil]	2.0	3.0	4.0	5.0	6.0	8.0	9.0	9.0	9.0	9.0	8.5	9.0	9.0	6.5	6.5	7.0	6.0	6.5	5.0	5.5	Postemergence herbicidal rating, ECHCG ([1]; rate 0.1250 kg/ha): 4.0; herbicidal rating, ECHORC ([3]; rate 0.0080 kg/ha): 2.0; herbicidal rating, ORYSAT (rice tolerance) (ORYSAT (Rice, Tebonnet); rate 0.0080 kg/ha): 3.0; herbicidal rating, ORYSAT (rice tolerance) (ORYSAT (Rice, Tebonnet); rate 0.0320 kg/ha): 3.5; herbicidal rating, ORYSAT (rice tolerance) (ORYSAT (Rice, Tebonnet); rate 0.1250 kg/ha): 5.5; Postemergence herbicidal rating, GLXMAW ([7]; rate 0.1250 kg/ha): 8.5; Postemergence herbicidal rating, ZEAMX (ZEAMX (Corn, Field) [8]; rate 0.1250 kg/ha): 6.5; GLXMAW preemergence herbicidal rating ([9]; Rate 0.0620 kg/ha): 5.5; GLXMAW preemergence herbicidal rating ([9]; Rate 0.1250 kg/ha): 9.0; GLXMAW preemergence herbicidal rating ([9]; Rate 0.2500 kg/ha): 9.0
Cc1ccsc1-c1nsc2ccc(-n3c(=O)cc(C(F)(F)F)n(C)c3=O)cc12 [Compound 4, 1-methyl-3-[3-(3-methyl-2-thienyl)-1,2-benzisothiazol-5-yl]-6-(trifluoromethyl)uracil]	2.0	2.8	1.2	2.5	4.3	9.0	9.0	4.7	6.3	7.6	7.8	8.9	9.0	3.2	4.2	5.4	6.2	6.8	4.4	4.5	Postemergence herbicidal rating, ECHCG ([1]; rate 0.1250 kg/ha): 1.7; herbicidal rating, ECHORC ([3]; rate 0.0080 kg/ha): 4.0; herbicidal rating, ORYSAT (rice tolerance) (ORYSAT (Rice, Tebonnet); rate 0.0080 kg/ha): 2.0; herbicidal rating, ORYSAT (rice tolerance) (ORYSAT (Rice, Tebonnet); rate 0.0320 kg/ha): 3.5; herbicidal rating, ORYSAT (rice tolerance) (ORYSAT (Rice, Tebonnet); rate 0.1250 kg/ha): 4.0; Postemergence herbicidal rating, GLXMAW ([7]; rate 0.1250 kg/ha): 7.3; Postemergence herbicidal rating, ZEAMX (ZEAMX (Corn, Field) [8]; rate 0.1250 kg/ha): 5.0; GLXMAW preemergence herbicidal rating ([9]; Rate 0.0620 kg/ha): 2.7; GLXMAW preemergence herbicidal rating ([9]; Rate 0.1250 kg/ha): 4.4; GLXMAW preemergence herbicidal rating ([9]; Rate 0.2500 kg/ha): 6.0
Cn1c(C(F)(F)F)cc(=O)n(-c2ccc3snc(C(SCCO)SCCO)c3c2)c1=O [Compound 33, 1,2-benzisothiazole-3-carboxaldehyde, 5-[3,6-dihydro-3-methyl-2,6-dioxo-4-(trifluoromethyl)-1(2H)-pyrimidinyl]-, 3-[bis(2-hydroxyethyl)dithioacetal]]	1.0	3.0	0.0	1.0	4.0	0.0	2.0	0.0	5.0	5.0	2.0	9.0	9.0	0.0	2.0	2.0	5.0	5.5	5.0	5.5	GLXMAW preemergence herbicidal rating ([9]; Rate 0.0620 kg/ha): 0.0; GLXMAW preemergence herbicidal rating ([9]; Rate 0.1250 kg/ha): 1.0; GLXMAW preemergence herbicidal rating ([9]; Rate 0.2500 kg/ha): 3.0
Cc1ccn(-c2nsc3ccc(-n4c(=O)cc(C(F)(F)F)n(C)c4=O)cc23)n1 [Compound 38, 1-methyl-3-[3-(3-methylpyrazol-1-yl)-1,2-benzisothiazol-5-yl]-6-(trifluoromethl)uracil]	0.0	3.0	3.0	4.0	5.0	7.0	9.0	0.0	0.0	6.0	4.0	4.0	6.0	5.0	5.0	8.0	5.5	7.0	5.0	5.5	herbicidal rating, ECHORC ([3]; rate 0.0080 kg/ha): 0.0; GLXMAW preemergence herbicidal rating ([9]; Rate 0.0620 kg/ha): 0.0; GLXMAW preemergence herbicidal rating ([9]; Rate 0.1250 kg/ha): 4.0; GLXMAW preemergence herbicidal rating ([9]; Rate 0.2500 kg/ha): 4.0
